pIC50: −log10 of the molar value.
What was measured:
recombinant human ALDH2 = recombinant human ALDH2 (Homo sapiens (Human), UniProt P05091); assay: ALDH2 assay (NADH formation); format: biochemical; conditions: 60 min pre-incubation, 150 uM formaldehyde, 2.5 mM NAD+; read-out: IC50 HALDH2
Procedure: Standard ALDH2 reaction mixtures contained 150 uM formaldehyde, 2.5 mM NAD^+, 10 mM MgCl2 and 10 nM recombinant human ALDH2 in 50 mM Hepes buffer, pH 7.4, 0.01% Tween 20 in a final volume of 50 ul using 384-well plates. After 60 min of pre-incubation of compound with ALDH2 and formaldehyde, the reaction was started by adding NAD+ and the reaction mixture was allowed to proceed for 90 minutes. Activity of the enzyme was determined by monitoring NADH formation using Perkin-Elmer Envision Reader with excitation and emission wavelengths set at 340 and 460 nm, respectively.
(§1) Note: […] refers to the concentration of a compound that inhibits a reaction by 50%. In the case of competitive inhibition, IC50=2Ki when the substrate is present at the Km concentration, as per the relationship: Ki=IC50/[1+(substrate concentration/Km)].

HMAO-A = HMAO-A (Homo sapiens (Human), UniProt P21397); assay: MAO-A assay (luminogenic MAO substrate); format: biochemical; conditions: microsome MAO-A, 160 uM substrate
Chain of HMAO-A (P21397 whole entry): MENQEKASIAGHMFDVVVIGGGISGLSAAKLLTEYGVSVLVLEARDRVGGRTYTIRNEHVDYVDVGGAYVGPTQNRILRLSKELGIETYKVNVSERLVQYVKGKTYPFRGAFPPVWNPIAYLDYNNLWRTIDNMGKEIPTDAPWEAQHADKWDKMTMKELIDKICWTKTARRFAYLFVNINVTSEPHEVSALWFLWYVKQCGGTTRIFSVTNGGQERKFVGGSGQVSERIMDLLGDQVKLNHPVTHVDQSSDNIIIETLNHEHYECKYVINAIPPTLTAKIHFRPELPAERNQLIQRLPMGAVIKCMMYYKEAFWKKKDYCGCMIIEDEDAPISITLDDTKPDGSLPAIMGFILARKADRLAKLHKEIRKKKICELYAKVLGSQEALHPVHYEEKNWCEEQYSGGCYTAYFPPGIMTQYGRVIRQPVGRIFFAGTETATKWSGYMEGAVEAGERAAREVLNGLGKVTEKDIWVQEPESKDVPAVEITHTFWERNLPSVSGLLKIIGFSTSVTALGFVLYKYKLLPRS
Procedure: (§2) MAO assays included luminogenic MAO substrate, reaction buffers, Luciferin Detection and the reconstitution buffer with eserase. Standard MAO reaction mixtures included microsome contained MAO-A (2 ug) or MAO-B (10 ug), 160 uM substrate for MAO-A or 16 uM substrate for MAO-B, MAO-A buffer (100 mM Hepes buffer, pH 7.5, 5% glycerol) or MAO-B buffer (100 mM Hepes, pH 7.5, 5% glycerol, 10% dimethyl sulfoxide) in a final volume of 30 ul. After 20 minutes of pre-incubation of the enzyme with compounds, the reaction was initiated by adding enzyme substrate and the reaction was allowed to proceed for 60 minutes. Reconstituted Luciferin Detection Reagent (30 ul) was then added is added to simultaneously stop the MAO reaction and convert the methyl ester derivative to luciferin and produce light. The amount of light produced is directly proportional to the activity of MAO. The mixtures were further incubated for 20 minutes and activity of the enzyme was determined using Perkin-Elmer Envision Reader.
as §1

HMAO-B = HMAO-B (Homo sapiens (Human), UniProt P27338); assay: MAO-B assay (luminogenic MAO substrate); format: biochemical; conditions: microsome MAO-B, 16 uM substrate
Chain of HMAO-B (P27338 whole entry): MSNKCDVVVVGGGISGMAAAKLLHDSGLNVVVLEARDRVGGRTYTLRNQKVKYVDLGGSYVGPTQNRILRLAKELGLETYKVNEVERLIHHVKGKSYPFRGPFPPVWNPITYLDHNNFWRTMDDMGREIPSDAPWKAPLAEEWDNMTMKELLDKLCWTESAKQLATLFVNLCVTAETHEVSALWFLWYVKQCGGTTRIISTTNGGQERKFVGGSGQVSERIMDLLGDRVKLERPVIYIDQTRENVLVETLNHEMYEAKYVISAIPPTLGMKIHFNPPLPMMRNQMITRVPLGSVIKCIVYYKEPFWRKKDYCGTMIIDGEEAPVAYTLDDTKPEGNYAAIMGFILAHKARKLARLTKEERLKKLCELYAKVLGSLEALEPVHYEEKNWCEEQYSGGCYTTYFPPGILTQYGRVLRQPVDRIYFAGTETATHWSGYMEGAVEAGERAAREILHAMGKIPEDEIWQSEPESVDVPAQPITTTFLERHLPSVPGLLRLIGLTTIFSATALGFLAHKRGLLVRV
Procedure: as §2, §1

Male SD rats = assay: Rat nicotine self administration, acute treatment; format: in vivo; conditions: 1 hr before session
Procedure: Male SD rats were trained to self administer i.v. nicotine (0.03 mg/kg/inj) daily (Monday to Friday) in standard operant chambers with retractable levers (MED Associates, Inc) as previously published (Levin et al., 2003; Levin et al., 2007). During the daily 45 min session, rats received 0.05 ml infusion of 0.03 mg/kg/infusion of nicotine every time the active lever was pressed. A cue light and tone turned on for 0.5 sec together with the activation of a pump that delivered the nicotine solution. Daily sessions were run for at least 10 days before the initiation of drug testing. Solutions of compounds of Example 2 and Example 5 were prepared fresh daily in Formulation 2B: 25% PEG400/5% Vit E TPGS/1% SLS/69% water with 0.5% Methocel) for oral dosing. Compound of Example 2 doses were administered in a counterbalanced design for testing 1 hr before each nicotine session. Every rat received all drug doses and vehicle in a randomly assigned order. The oral drug administrations were made twice per week.
Compound of Example 5 was tested in a study using 4 independent groups. Each group received either oral vehicle or 1 of the 3 doses of compound of Example 5 (5, 10 or 30 mg-eq/kg). […] The 5 mg/kg dose was ineffective.

[1] = test system: male Sprague Dawley (SD) rats; assay: Rat cocaine cue reinstatement; format: in vivo
Procedure: Training of male Sprague Dawley (SD) rats had 3 separate stages. First, during self administration, animals were trained to lever press for cocaine with presentation of concomitant cues associated with drug delivery. Rats that reached criteria for addiction were included in the study. Afterward, during cue extinction, cocaine-cue dependent behavior was extinguished. Lastly, during cocaine cue reinstatement, the effect of compounds was tested on lever presses upon cue presentation (FIG. 2).
Rats were trained to self administer i.v. cocaine (0.35 mg/kg/injection) daily (Monday to Friday) in standard operant chambers with retractable levers (Coulbourn Instruments, PA). During the daily 2 hr session, rats received a 0.05 ml infusion of 0.35 mg/kg cocaine every time the active lever was pressed. A cue light and tone turned on for 2 sec together with activation of a pump that delivered the cocaine solution. Rats were required to maintain an infusion rate of ≧20+ per day for at least 10 days before being moved to extinction training.
During extinction sessions lever presses no longer produced cocaine infusion and cue light/tone presentation was absent. Rats received a maximum of 15 extinction sessions.
On the next day after reaching extinction criteria, rats were treated orally with vehicle (Formulation 2B: 25% PEG400/5% Vit E TPGS/1% SLS/69% water with 0.5% Methocel) or drug (compound of Example 2 or compound of Example 5) before the cue reinstatement session. Cue reinstatement began with a tone and cue light. This 2 hr session was identical to the self-administration session (cue light and tone present upon active lever press) except that no cocaine was delivered. The number of active lever presses was compared to extinction lever responding. This is considered a measure of reinstatement. The next day, rats were returned to extinction sessions for at least 2 or 3 more sessions. Rats then received a second and last reinstatement session with an opposite treatment to the one received on the first reinstatement session (vehicle or drug treatment). […] The light/tone presentation triggers this response and it is interpreted as a measure of reinstatement even though cocaine is not available.

Chain of recombinant human ALDH2 (P05091 18-517): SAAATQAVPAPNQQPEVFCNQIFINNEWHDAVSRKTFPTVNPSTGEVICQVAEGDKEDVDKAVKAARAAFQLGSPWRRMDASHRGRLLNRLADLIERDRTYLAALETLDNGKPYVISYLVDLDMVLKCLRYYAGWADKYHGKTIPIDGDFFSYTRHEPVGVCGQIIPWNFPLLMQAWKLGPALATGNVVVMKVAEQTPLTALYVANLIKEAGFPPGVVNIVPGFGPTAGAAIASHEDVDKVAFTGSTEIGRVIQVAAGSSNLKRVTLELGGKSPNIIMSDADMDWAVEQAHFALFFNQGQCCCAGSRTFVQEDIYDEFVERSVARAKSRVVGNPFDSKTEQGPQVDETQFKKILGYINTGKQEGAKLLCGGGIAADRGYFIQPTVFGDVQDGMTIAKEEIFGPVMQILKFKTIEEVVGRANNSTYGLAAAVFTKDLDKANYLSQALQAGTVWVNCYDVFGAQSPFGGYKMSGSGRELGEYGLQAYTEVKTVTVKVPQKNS

SMILES | pIC50 (recombinant human ALDH2) | pIC50 (HMAO-A) | pIC50 (HMAO-B) | other results
O=C(NCc1ccc(-c2cc[nH]c(=O)c2)cc1)c1c(Cl)cccc1Cl [Compound 2, 2,6-dichloro-N-[4-(2-oxo-1,2-dihydro-pyridin-4-yl)-benzyl]-benzamide] | 6.99 | < 3.89 | < 3.89 | effect on number of nicotine infusions compared to vehicle (Male SD rats; 1 mg/kg oral): without effect; effect on number of nicotine infusions compared to vehicle (Male SD rats; 5 mg/kg oral): without effect; inhibition of number of nicotine infusions compared to vehicle (Male SD rats; 10 mg/kg oral): 26%; inhibition of number of nicotine infusions compared to vehicle (Male SD rats; 30 mg/kg oral): 28%; inhibition of number of nicotine infusions compared to vehicle (Male SD rats; 60 mg/kg oral): 31%; reduction of cocaine cue-induced reinstatement (lever presses) compared to vehicle ([1]; 5 mg/kg oral): 69%; reduction of cocaine cue-induced reinstatement (lever presses) compared to vehicle ([1]; 10 mg/kg oral): 72%; reduction of cocaine cue-induced reinstatement (lever presses) compared to vehicle ([1]; 30 mg/kg oral): 86%
O=C(NCc1ccc(-c2cc[nH]c(=O)c2)cc1)c1cccc(F)c1Cl [Compound 3, 2-chloro-3-fluoro-N-(4-(2-oxo-1,2-dihydropyridin-4-yl)benzyl)benzamide] | 6.67 | < 3.89 | < 3.89 | 
Cc1cccc(Cl)c1C(=O)NCc1ccc(-c2cc[nH]c(=O)c2)cc1 [Compound 4, 2-chloro-6-methyl-N-(4-(2-oxo-1,2-dihydropyridin-4-yl)benzyl)benzamide] | 7.64 | < 3.89 | < 3.89 | 
Cc1cccc(C)c1C(=O)NCc1ccc(-c2cc[nH]c(=O)c2)cc1 [Compound 5, 2,6-dimethyl-N-(4-(2-oxo-1,2-dihydropyridin-4-yl)benzyl)benzamide] | 6.78 | < 3.89 | < 3.89 | 
Cc1cc(-c2ccc(CNC(=O)c3c(Cl)cccc3Cl)cc2)cc(=O)[nH]1 [Compound 6, 2,6-dichloro-N-[4-(6-methyl-2-oxo-1,2-dihydro-pyridin-4-yl)-benzyl]-benzamide] | 5.95 | < 3.89 | < 3.89 | 
O=C(NCc1ccc(-c2cc[nH]c(=O)c2)cc1)c1c(F)ccc(F)c1Cl [Compound 7, 2-chloro-3,6-difluoro-N-(4-(2-oxo-1,2-dihydropyridin-4-yl)benzyl)benzamide] | 6.33 | < 3.89 | < 3.89 | 
O=C(NCc1ccc(-c2cc[nH]c(=O)c2)cc1)c1c(F)cccc1F [Compound 10, 2,6-difluoro-N-(4-(2-oxo-1,2-dihydropyridin-4-yl)benzyl)benzamide] | 6.05 | < 3.89 | < 3.89 | 
O=C(NCc1ccc(-c2cc[nH]c(=O)c2)cc1F)c1c(Cl)cccc1Cl [Compound 12, 2,6-dichloro-N-(2-fluoro-4-(2-oxo-1,2-dihydropyridin-4-yl)benzyl)benzamide] | 6.52 | < 3.89 | < 3.89 | 

The remaining compounds from weak to strong by pIC50 (recombinant human ALDH2), led by results:

pIC50 (recombinant human ALDH2) | pIC50 (HMAO-A) | pIC50 (HMAO-B) | SMILES | other results
5.68 | < 3.89 | < 3.89 | Cn1ccc(-c2ccc(CNC(=O)c3c(Cl)cccc3Cl)cc2)cc1=O [Compound 9, 2,6-dichloro-N-(4-(1-methyl-2-oxo-1,2-dihydropyridin-4-yl)benzyl)benzamide] | 
6.32 | < 3.89 | < 3.89 | Cc1cc(CNC(=O)c2c(Cl)cccc2Cl)ccc1-c1cc[nH]c(=O)c1 [Compound 8, 2,6-dichloro-N-(3-methyl-4-(2-oxo-1,2-dihydropyridin-4-yl)benzyl)benzamide] | 
6.42 | < 3.89 | < 3.89 | O=C(NCc1ccc(-c2cc[nH]c(=O)c2)cc1)c1c(F)cccc1Cl [Compound 11, 2-chloro-6-fluoro-N-(4-(2-oxo-1,2-dihydropyridin-4-yl)benzyl)benzamide] | 
7.20 | < 3.89 | < 3.89 | COCCOc1cc(Cl)c(C(=O)NCc2ccc(-c3cc[nH]c(=O)c3)cc2)c(Cl)c1 [Compound 1, 2,6-dichloro-4-(2-methoxyethoxy)-N-(4-(2-oxo-1,2-dihydropyridin-4-yl)benzyl)benzamide] | 
7.60 | < 3.89 | < 3.89 | O=C(NCc1ccc(-c2cc(=O)[nH]cc2F)cc1)c1c(Cl)cccc1Cl [Compound 13, 2,6-dichloro-N-(4-(5-fluoro-2-oxo-1,2-dihydropyridin-4-yl)benzyl)benzamide] | 

Source: patent US9000015B2, “Compounds for the treatment of addiction” (Gilead Sciences, Inc., priority 2011, dated 2015)
